# Assay results taken from ChEMBL document CHEMBL1148096, “Ophirapstanol trisulfate, a new biologically active steroid sulfate from the deep water marine sponge Topsentia ophiraphidites” (J Nat Prod, 1994).
# pIC50: −log10 of the molar value.
# Biological target: GTPase HRas (Homo sapiens, UniProt P01112)
# Experiment: Inhibition of human recombinant p21RAS by GDPX assay
# Sequence of GTPase HRas (P01112 whole entry): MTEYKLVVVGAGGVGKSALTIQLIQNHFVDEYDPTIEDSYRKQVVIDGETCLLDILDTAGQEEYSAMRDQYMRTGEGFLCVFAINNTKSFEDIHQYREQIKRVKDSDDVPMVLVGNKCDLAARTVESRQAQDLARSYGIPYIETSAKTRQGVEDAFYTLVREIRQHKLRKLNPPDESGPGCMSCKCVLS
compound,measurement,value
CC(C)C(C)(C)C(C)CC[C@@H](C)[C@H]1CC[C@H]2[C@@H]3C[C@H](OS(=O)(=O)O)C4C[C@H](OS(=O)(=O)O)[C@@H](OS(=O)(=O)O)C[C@]4(C)[C@H]3CC[C@]12C (stereo partly specified) [OPHIRAPSTANOL TRISULFATE],pIC50,5.59
